Patent EP0348967A2, “Synthetic lung surfactant preparation comprising lipids and polypeptides” (MERRELL PHARMACEUTICALS INC., priority 1988, dated 1990)

Tested on: adult rat lung
Test: adult rat lung model (pressure-volume curve, lung compliance)
Assay type: in vivo
Conditions: pressure-volume curves (Figs. 1 and 2), three ml of the preparations of Examples 1 and 2 tested
Protocol: The synthetic surfactant preparations were tested in the adult rat lung model (Ikegami, et al., (1979) Pediatr. Res. 13, 777-780). Reference I and Reference II, consisting of DPPC, alone and dog lung surfactant, respectively, were employed as reference standards. Three ml of the preparations from each of examples 1 and 2 were tested in an adult rat lung model. […] Results are illustrated in Figures 1 and 2.

CCCCCCCCCCCCCCCC(=O)OC[C@H](COP(=O)([O-])OCC[N+](C)(C)C)OC(=O)CCCCCCCCCCCCCCC [Reference I, dipalmitoylphosphatidylcholine]
compliance of the rat lung: no effect
